#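 Results reflect a 48-hour exposure of cells in 96-well plates to compound at five concentrations. Definition used: TGI = concentration required for complete inhibition of growth.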
# How the values were obtained:
# Assay in all cases: inhibition of tumour cell growth, NCI panel, 48 h
# TK-10 renal = tested on: TK-10 renal
# NCI-H460 lung = tested on: NCI-H460 lung
# SNB-75 CNS = tested on: SNB-75 CNS
# HOP-92 NSCLC = tested on: HOP-92 NSCLC
# U251 CNS = tested on: U251 CNS
# COLO 205 colon = tested on: COLO 205 colon
# BT-549 breast = tested on: BT-549 breast
# UO-31 renal = tested on: UO-31 renal
# HS 578T breast = tested on: HS 578T breast
# SNB-19 CNS = tested on: SNB-19 CNS
# OVCAR-8 ovarian = tested on: OVCAR-8 ovarian
# SK-MEL-28 melanoma = tested on: SK-MEL-28 melanoma
# UACC-62 melanoma = tested on: UACC-62 melanoma
# CAKI-1 renal = tested on: CAKI-1 renal
# HOP-62 NSCLC = tested on: HOP-62 NSCLC
# OVCAR-4 ovarian = tested on: OVCAR-4 ovarian
# DU-145 prostate = tested on: DU-145 prostate
Compound,TGI (TK-10 renal) [µM],TGI (NCI-H460 lung) [µM],TGI (SNB-75 CNS) [µM],TGI (HOP-92 NSCLC) [µM],TGI (U251 CNS) [µM],TGI (COLO 205 colon) [µM],TGI (BT-549 breast) [µM],TGI (UO-31 renal) [µM],TGI (HS 578T breast) [µM],TGI (SNB-19 CNS) [µM],TGI (OVCAR-8 ovarian) [µM],TGI (SK-MEL-28 melanoma) [µM],TGI (UACC-62 melanoma) [µM],TGI (CAKI-1 renal) [µM],TGI (HOP-62 NSCLC) [µM],TGI (OVCAR-4 ovarian) [µM],TGI (DU-145 prostate) [µM]
CC1(C)N(OC2CCCCO2)C(c2ccccc2)C(c2ccccc2)=[N+]1[O-] (stereo unspecified),> 100,> 100,> 100,> 100,> 100,> 100,> 100,> 100,> 100,> 100,> 100,> 100,> 100,> 100,> 100,> 100,
Cc1cc(=O)oc2c(CNC(C)C(=O)O)c(O)ccc12 (stereo unspecified),> 100,> 100,> 100,> 100,> 100,> 100,,> 100,> 100,> 100,> 100,> 100,> 100,> 100,> 100,> 100,> 100
CC(=O)OCc1cccc(O)c1C(=O)CCC=C(C)C,> 100,> 100,,> 100,> 100,> 100,,> 100,> 100,> 100,,> 100,> 100,> 100,> 100,> 100,> 100
OC(c1ccsc1)c1cc2ccccc2s1 (stereo unspecified),> 10,> 10,> 10,> 10,> 10,> 10,,> 10,> 10,> 10,> 10,> 10,> 10,> 10,> 10,> 10,> 10
O=C(O)Cn1nnc2c(=O)[nH][nH]c(=O)c21,> 100,> 100,,> 100,> 100,> 100,> 100,> 100,,> 100,> 100,> 100,,> 100,> 100,> 10,> 100
Cc1ccc(-c2c(C#N)c(-c3ccc([N+](=O)[O-])cc3)c(C#N)c(=O)n2NS(=O)(=O)c2ccc(C)cc2)cc1,> 100,> 100,> 100,> 100,> 100,> 100,> 100,,95.8,> 100,> 100,> 100,> 100,> 100,> 100,> 100,
CC(=O)O[C@H]1C(=O)[C@@]2(C)[C@H]([C@H](OC(=O)c3ccccc3)[C@]3(O)C[C@H](OC(=O)[C@H](O)[C@@H](NC(=O)c4ccccc4)C4CCCCC4)C(C)=C1C3(C)C)[C@]1(OC(C)=O)CO[C@@H]1C[C@@H]2O,37.4,15.3,,64.1,> 43,< 0.01,> 100,36.2,< 0.01,> 100,98.8,> 100,52.2,> 100,1.45,50.5,
CC(=O)c1ccc(N2CCN(c3c(O)c4c(c(O)c3Cl)C(=O)C=CC4=O)CC2)cc1,,41,26.6,5.13,11.9,8.91,,22.9,,35.7,23,16.8,7.37,11.8,21,10.8,31.2
C/C(=N\Nc1nc2ccccc2[nH]1)c1ccncn1,> 100,> 100,> 74.5,0.293,> 100,> 47.4,> 100,,> 100,> 100,> 87.6,> 63,,> 49,1.3,> 100,
Cc1ccc(S(=O)(=O)c2c(N)c3nccn3c3nc4ccccc4nc23)cc1,> 100,> 100,> 100,> 100,> 100,> 100,,> 100,,> 100,> 100,> 100,> 100,> 100,> 100,> 100,
COc1ccc(-c2nc(N(C)C)c3ccccc3n2)cc1,65.8,26.9,40.4,68.8,80,29.6,43.5,15.8,59.2,> 100,> 100,33.7,37.6,> 100,51.5,> 100,
Cc1ccc(C2(C)NC(=S)N(NC(N)=S)C2=S)cc1 (stereo unspecified),> 100,> 100,> 100,,> 100,> 100,,> 100,,> 100,> 100,> 100,> 100,,> 100,> 100,
CCN(CC)CCCC(C)NC(=O)c1cc(-c2nccn2C)nc2ccc(C)cc12 (stereo unspecified),> 100,> 100,> 100,> 100,> 100,> 100,> 100,> 100,,> 100,> 100,> 100,> 100,> 100,> 100,> 100,> 100
CCOC(=O)C1=C(OS(=O)(=O)C(F)(F)F)CCCC1,> 100,> 100,> 100,> 100,> 100,> 100,,> 100,> 100,> 100,> 100,> 100,> 100,> 100,> 100,> 100,> 100
C=C1C(=O)OC2C[C@H](C)C3CC(=O)C(C)=C3CC12 (stereo partly specified),30.5,51.6,32.6,24.1,18.1,26.5,,26,,> 100,39.3,18.7,25.9,18.2,> 54.4,30.3,
Cc1c(/C=N/NC(=O)c2ccccc2)c(=O)n(-c2ccccc2)n1C,> 100,> 100,> 100,> 100,> 100,> 100,,> 100,,> 100,> 100,> 100,> 100,,> 100,> 100,

Compound,TGI (TK-10 renal) [µM],TGI (NCI-H460 lung) [µM],TGI (SNB-75 CNS) [µM],TGI (HOP-92 NSCLC) [µM],TGI (U251 CNS) [µM],TGI (COLO 205 colon) [µM],TGI (BT-549 breast) [µM],TGI (UO-31 renal) [µM],TGI (HS 578T breast) [µM],TGI (SNB-19 CNS) [µM],TGI (OVCAR-8 ovarian) [µM],TGI (SK-MEL-28 melanoma) [µM],TGI (UACC-62 melanoma) [µM],TGI (CAKI-1 renal) [µM],TGI (HOP-62 NSCLC) [µM],TGI (OVCAR-4 ovarian) [µM],TGI (DU-145 prostate) [µM]
O=C1NC2OCC(O)C(O1)C2O (stereo unspecified),> 100,> 100,> 100,> 100,> 100,> 100,,> 100,,> 100,> 100,> 100,> 100,> 100,> 100,> 100,
Cc1nc2c(O)cccc2c(=O)[nH]1,> 1000,> 1000,> 1000,> 1000,> 1000,,634,> 1000,> 1000,> 1000,> 1000,> 1000,> 1000,> 1000,> 1000,> 1000,
Cn1c(N(CCO)CCO)cnc1[N+](=O)[O-],> 100,> 100,> 100,> 100,> 100,> 100,> 100,> 100,> 100,> 100,> 100,,> 100,> 100,> 100,> 100,
COc1cc2c(c(N)c1OC)C(=O)/C(=C/c1cc(C)c(O)c(C)c1)C2,> 100,> 57.8,,> 100,> 45.5,> 52.2,> 100,> 100,,> 100,> 100,> 100,> 100,> 100,> 60.2,> 100,16.9
COC(=O)c1ccccc1/C=C1\Cc2cc3c(cc2C1=O)CCC3,> 100,> 100,> 100,,> 100,> 100,> 100,> 100,,> 100,> 100,> 100,> 100,> 100,> 100,> 100,> 100
C=CC1(c2ccc3ccccc3c2)OCC(CC)(CC)CO1,89.5,46.8,96.1,52,42,31.8,,86.1,41.6,36.3,> 100,> 100,46,,84.4,> 100,> 100
Cc1ccc(S(=O)(=O)NC(=O)C2(Br)S(=O)(=O)OCCOS2(=O)=O)cc1,> 100,> 100,> 100,> 100,> 100,> 100,,> 100,,> 100,> 100,> 100,> 100,,> 100,> 100,
COc1c(C(=O)/C(=N/Nc2ccccc2)C(C)=O)c(O)c(OC)c2occc12,> 100,> 100,81.8,99.6,> 100,> 100,,86.3,> 100,> 100,> 100,> 100,> 100,> 100,> 100,> 100,> 100
O=c1c2c(sc3ccccc13)NCN(CCc1ccccc1)C2,,> 100,78.2,> 100,> 100,37,> 100,> 100,,> 100,> 100,> 100,> 100,> 100,> 100,> 100,> 100
CC(C)=CCC/C(C)=C/CC/C(C)=C/CC/C=C(\C)CC/C=C(\C)CCC1SC1(C)C (stereo unspecified),> 100,> 100,> 100,> 100,> 100,> 100,,> 100,,> 100,> 100,> 100,> 100,> 100,> 100,> 100,
CC(N)C(=O)c1ccc(O)cc1 (stereo unspecified),> 100,> 100,> 100,> 100,> 100,> 100,,> 100,,> 100,> 100,> 100,> 100,> 100,> 100,> 100,
CC1=C2C(=O)C3[C@@H](CCC4=CC(=O)CC[C@@]43C)C2CC[C@]12O[C@@H]1C[C@H](C)CN[C@H]1[C@H]2C (stereo partly specified),98.7,> 100,> 100,> 100,51.5,> 100,,> 100,,> 100,> 100,> 100,61,> 100,68.2,> 100,
CSC(=NC1CC(n2cc(C)c(=O)[nH]c2=O)OC1CO)NC#N (stereo unspecified),> 100,> 100,> 100,> 100,> 100,> 100,,> 100,,> 100,> 100,> 100,> 100,> 100,> 100,> 100,> 100
Nc1ncnc2c1ncn2[C@@H]1C[C@H]1CO,,> 100,,,> 100,,,> 100,> 100,> 100,> 100,,,,> 100,,
C=C[C@@]1(C)CC2CC[C@]3(C)C(C)=CC(=O)CC3[C@]2(C)CC1O (stereo partly specified),> 100,> 100,,> 100,> 100,> 100,,> 100,> 100,> 100,,> 100,> 100,> 100,> 100,> 100,> 100

# Source: PubChem BioAssay (NCI)
